IC50 data for 34 compounds are collected here from patent publication US8927587B2, “Chemical compounds” (Pfizer Limited, priority 2012, dated 2015).

This assay deals with T1, hNav1.8 (Homo sapiens, UniProt Q9Y5Y9).
T1 construct: host or cells: HEK cells, stably transfected
The assay is described as follows: hNav1.8 whole-cell patch-clamp electrophysiology (conventional or PatchXpress 7000) in stably transfected HEK cells. The class given is cell-based. From the text: The ability of the benzimidazole derivatives of the formula (I) to inhibit the Nav1.8 channel may be measured using the assay described below.
HEK cells stably transfected with hNav1.8, purchased from Millipore (Millipore Corp., Billerica, Mass. 01821), were maintained according to manufacturer's instructions. For electrophysiological studies, cells were removed from the culture flask by brief trypsinization and re-plated at low density onto glass cover slips. Cells were typically used for electrophysiological experiments within 24 to 72 h after plating.
Cover slips containing HEK cells expressing hNav1.8 were placed in a bath on the stage of an inverted microscope and perfused (approximately 1 ml/min) with extracellular solution of the following composition: 138 mM NaCl, 2 mM CaCl2, 5.4 mM KCl, 1 mM MgCl2, 10 mM glucose, and 10 mM HEPES, pH 7.4, with NaOH. […] The osmolarity of the extracellular and intracellular solutions was 300 mOsm/kg and 295 mOsm/kg, respectively. All recordings were made at room temperature (22-24° C.) using AXOPATCH 200B amplifiers and PCLAMP software (Axon Instruments, Burlingame, Calif.).
hNav1.8 currents in HEK cells were measured using the whole-cell configuration of the patch-clamp technique (Hamill et al., 1981). Uncompensated series resistance was typically 2 to 5 mega ohms and >85% series resistance compensation was routinely achieved. As a result, voltage errors were negligible and no correction was applied. Current records were acquired at 20 to 50 KHz and filtered at 5 to 10 KHz.
HEK cells stably transfected with hNav1.8 were viewed under Hoffman contrast optics and placed in front of an array of flow pipes emitting either control or compound-containing extracellular solutions. All compounds were dissolved in dimethyl sulfoxide to make 10 mM stock solutions, which were then diluted into extracellular solution to attain the final concentrations desired.
The voltage-dependence of inactivation was determined by applying a series of depolarizing prepulses (8 sec long in 10 mV increments) from a negative holding potential. The voltage was then immediately stepped to 0 mV to assess the magnitude of the sodium current. Currents elicited at 0 mV were plotted as a function of prepulse potential to allow estimation of the voltage at which 50% of the channels were inactivated (midpoint of inactivation or V1/2). Compounds were tested for their ability to inhibit hNav1.8 sodium channels by activating the channel with a 20 msec voltage step to 0 mV following an 8 second conditioning prepulse to the empirically determined V1/2. Compound effect (% inhibition) was determined by difference in current amplitude before and after application of test compounds. For ease of comparison, “estimated IC50” values were calculated from single point electrophysiology data by the following equation, (tested concentration, uM)×(100-% inhibition/% inhibition). Inhibition values<20% and >80% were excluded from the calculation.
In some cases electrophysiological assays were conducted with PatchXpress 7000 hardware and associated software (Molecular Devices Corp). All assay buffers and solutions were identical to those used in conventional whole-cell voltage clamp experiments described above. hNav1.8 cells were grown as above to 50%-80% confluency and harvested by trypsinization. Trypsinized cells were washed and resuspended in extracellular buffer at a concentration of 1×10^6 cells/ml. The onboard liquid handling facility of the PatchXpress was used for dispensing cells and application of test compounds. Determination of the voltage midpoint of inactivation was as described for conventional whole-cell recordings. Cells were then voltage-clamped to the empirically determined V1/2 and current was activated by a 20 msec voltage step to 0 mV.
Estimated IC50 values for the compounds of formula (I) exemplified above are as follows. […]

Setting [1] is: estimated IC50 calculated from single point % inhibition, HEK cells expressing hNav1.8, 8 sec prepulse to V1/2, 20 msec step to 0 mV, average of replicates, read-out: Nav1.8 EIC50.

Like-named read-outs stand apart in the source and are kept apart here.

T1 sequence (Q9Y5Y9 whole entry): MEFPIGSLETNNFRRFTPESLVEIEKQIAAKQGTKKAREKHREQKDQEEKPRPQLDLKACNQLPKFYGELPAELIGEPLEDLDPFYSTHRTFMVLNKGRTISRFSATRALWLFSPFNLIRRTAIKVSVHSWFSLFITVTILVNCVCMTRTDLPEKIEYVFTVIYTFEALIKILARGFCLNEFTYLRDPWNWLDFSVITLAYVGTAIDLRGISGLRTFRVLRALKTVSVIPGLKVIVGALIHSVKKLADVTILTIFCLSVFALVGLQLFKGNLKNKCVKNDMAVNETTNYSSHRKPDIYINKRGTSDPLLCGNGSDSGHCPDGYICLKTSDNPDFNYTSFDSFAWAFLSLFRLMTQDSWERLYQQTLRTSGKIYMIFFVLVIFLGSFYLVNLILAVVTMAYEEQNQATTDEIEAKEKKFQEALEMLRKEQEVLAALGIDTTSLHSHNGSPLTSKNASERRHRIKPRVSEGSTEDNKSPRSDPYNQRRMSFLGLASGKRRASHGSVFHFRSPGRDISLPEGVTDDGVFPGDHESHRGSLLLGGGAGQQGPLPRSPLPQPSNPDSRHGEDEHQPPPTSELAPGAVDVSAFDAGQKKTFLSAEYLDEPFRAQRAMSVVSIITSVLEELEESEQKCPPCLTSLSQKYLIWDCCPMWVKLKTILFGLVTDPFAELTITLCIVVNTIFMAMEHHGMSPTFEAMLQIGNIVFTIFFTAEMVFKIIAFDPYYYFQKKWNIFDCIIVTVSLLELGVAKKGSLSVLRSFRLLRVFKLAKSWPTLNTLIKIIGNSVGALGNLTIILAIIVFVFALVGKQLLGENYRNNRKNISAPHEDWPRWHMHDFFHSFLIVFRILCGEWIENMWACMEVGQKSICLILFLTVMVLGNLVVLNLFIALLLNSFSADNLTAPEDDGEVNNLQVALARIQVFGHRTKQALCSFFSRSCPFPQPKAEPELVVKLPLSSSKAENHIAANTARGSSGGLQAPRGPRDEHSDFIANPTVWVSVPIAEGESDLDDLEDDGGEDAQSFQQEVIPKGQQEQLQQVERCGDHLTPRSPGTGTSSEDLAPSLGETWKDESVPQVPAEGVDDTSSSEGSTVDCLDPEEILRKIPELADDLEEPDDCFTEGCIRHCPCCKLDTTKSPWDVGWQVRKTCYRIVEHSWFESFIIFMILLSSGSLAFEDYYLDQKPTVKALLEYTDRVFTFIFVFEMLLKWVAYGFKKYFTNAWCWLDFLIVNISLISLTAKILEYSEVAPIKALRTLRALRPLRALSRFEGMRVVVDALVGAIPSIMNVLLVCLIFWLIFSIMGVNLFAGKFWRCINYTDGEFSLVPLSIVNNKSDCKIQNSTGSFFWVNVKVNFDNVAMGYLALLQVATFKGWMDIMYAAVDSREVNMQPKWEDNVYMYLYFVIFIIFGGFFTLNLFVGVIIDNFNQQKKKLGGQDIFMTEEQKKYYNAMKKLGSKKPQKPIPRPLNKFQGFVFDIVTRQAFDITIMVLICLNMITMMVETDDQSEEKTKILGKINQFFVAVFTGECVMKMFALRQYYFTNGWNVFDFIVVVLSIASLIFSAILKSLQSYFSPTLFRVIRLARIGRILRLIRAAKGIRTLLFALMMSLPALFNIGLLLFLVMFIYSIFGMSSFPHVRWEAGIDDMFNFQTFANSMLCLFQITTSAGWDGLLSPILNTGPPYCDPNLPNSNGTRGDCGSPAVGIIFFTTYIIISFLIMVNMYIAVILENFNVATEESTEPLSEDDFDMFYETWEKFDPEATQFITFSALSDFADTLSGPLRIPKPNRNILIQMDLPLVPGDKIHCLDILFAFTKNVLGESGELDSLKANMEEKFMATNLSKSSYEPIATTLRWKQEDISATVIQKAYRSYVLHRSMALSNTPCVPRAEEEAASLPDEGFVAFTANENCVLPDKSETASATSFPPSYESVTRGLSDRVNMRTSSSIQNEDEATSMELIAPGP

Regarding `C[C@@H](C(N)=O)[C@H](N)c1nc2cc(C(C)(C)C)ccc2[nH]1` (single isomer, unassigned) [Example 103], under setting [1], the IC50 is 15.4 nM.

For `C[C@H](C(N)=O)[C@H](N)c1nc2cc(C(C)(C)C)ccc2[nH]1` (single isomer, unassigned) [Example 104], under setting [1], the IC50 was 1580 nM.

As to `N#Cc1ccc(-c2ccc3[nH]c([C@@H]4C[C@@H](O)CN4)nc3c2)cc1` (stereo in doubt) [Example 46, 4-{2-[(2S,4R)-4-Hydroxypyrrolidin-2-yl]-1H-benzimidazol-5-yl}benzonitrile], the IC50 under setting [1] is 713 nM.

With `CC(C)CC[C@H](N)c1nc2cc(C(C)(C)C)ccc2[nH]1` [Example 1, (1S)-1-(5-tert-Butyl-1H-benzimidazol-2-yl)-4-methylpentan-1-amine], the IC50 under setting [1] is 127 nM.

As to `CC(C)(C)c1ccc2[nH]c(C3(N)Cc4ccccc4C3)nc2c1` [Example 2, 2-(5-tert-Butyl-1H-benzimidazol-2-yl)-2,3-dihydro-1H-inden-2-amine], the IC50 under setting [1] was 76 nM.

Turning to `CC(C)(C)c1ccc2[nH]c([C@@H](N)C3CCCC3)nc2c1` [Example 3, (S)-1-(5-tert-Butyl-1H-benzimidazol-2-yl)-1-cyclopentylmethanamine], under setting [1], the IC50 was 12.5 nM.

`CC(C)(C)c1ccc2[nH]c(C3(N)CCC3)nc2c1` [Example 4, 1-(5-tert-Butyl-1H-benzimidazol-2-yl)cyclobutanamine]: the IC50 under setting [1] is 447 nM.

Turning to `CC(C)[C@H](N)c1nc2cc(C(C)(C)C)ccc2[nH]1` [Example 5, (1S)-1-(5-tert-Butyl-1H-benzimidazol-2-yl)-2-methylpropan-1-amine], the IC50 under setting [1] is 364 nM.

With `CC(C)(C)c1ccc2[nH]c([C@@H](N)C(C)(C)C)nc2c1` [Example 6, (1S)-1-(5-tert-Butyl-1H-benzimidazol-2-yl)-2,2-dimethylpropan-1-amine], the IC50 under setting [1] was 433 nM.

Take `C[C@H](N)c1nc2cc(C(C)(C)C)ccc2[nH]1` [Example 7, (1S)-1-(5-tert-Butyl-1H-benzimidazol-2-yl)ethanamine]: the IC50 under setting [1] is 439 nM.

Consider `CC(C)C[C@@H](N)c1nc2cc(C(C)(C)C)ccc2[nH]1` [Example 8, (1R)-1-(5-tert-Butyl-1H-benzimidazol-2-yl)-3-methylbutan-1-amine], for which the IC50 under setting [1] is 108 nM.

For `CC(C)[C@@H](N)c1nc2cc(C(C)(C)C)ccc2[nH]1` [Example 9, (1R)-1-(5-tert-Butyl-1H-benzimidazol-2-yl)-2-methylpropan-1-amine], the IC50 under setting [1] is 347 nM.

On to `C[C@@H](N)c1nc2cc(C(C)(C)C)ccc2[nH]1` [Example 10, (1R)-1-(5-tert-Butyl-1H-benzimidazol-2-yl)ethanamine], for which, under setting [1], the IC50 is 607 nM.

Consider `CCCC[C@H](N)c1nc2cc(C(C)(C)C)ccc2[nH]1` [Example 11, (1S)-1-(5-tert-Butyl-1H-benzimidazol-2-yl)pentan-1-amine], for which, under setting [1], the IC50 is 29.7 nM.

Consider `COC[C@H](N)c1nc2cc(C(C)(C)C)ccc2[nH]1` [Example 12, (1R)-1-(5-tert-Butyl-1H-benzimidazol-2-yl)-2-methoxyethanamine], for which, under setting [1], the IC50 was 243 nM.

Regarding `CC(C)(C)c1ccc2[nH]c(C3(N)CCCC3)nc2c1` [Example 13, 1-(5-tert-Butyl-1H-benzimidazol-2-yl)cyclopentanamine], the IC50 under setting [1] was 496 nM.

Regarding `CC(C)C[C@H](N)c1nc2cc(C(C)(C)C)ccc2[nH]1` [Example 14, (1S)-1-(5-tert-Butyl-1H-benzimidazol-2-yl)-3-methylbutan-1-amine], under setting [1], the IC50 was 476 nM.

For `CC(C)(C)c1ccc2[nH]c([C@H](N)C(C)(C)C)nc2c1` [Example 15, (1R)-1-(5-tert-Butyl-1H-benzimidazol-2-yl)-2,2-dimethylpropan-1-amine], the IC50 under setting [1] is 123 nM.

For the compound `C[C@H](O)[C@@H](N)c1nc2cc(C(C)(C)C)ccc2[nH]1` [Example 16, (1S,2S)-1-Amino-1-(5-tert-butyl-1H-benzimidazol-2-yl)propan-2-ol], the IC50 under setting [1] is 2510 nM.

Regarding `CC(C)(C)c1ccc2[nH]c(C3(N)CCCCC3)nc2c1` [Example 17, 1-(5-tert-Butyl-1H-benzimidazol-2-yl)cyclohexanamine], the IC50 was 468 nM.

`C[C@@H](O)[C@@H](N)c1nc2cc(C(C)(C)C)ccc2[nH]1` [Example 18, (1S,2R)-1-Amino-1-(5-tert-butyl-1H-benzimidazol-2-yl)propan-2-ol]: under setting [1], the IC50 is 487 nM.

In the case of `C[C@H](O)[C@H](N)c1nc2cc(C(C)(C)C)ccc2[nH]1` [Example 19, (1R,2S)-1-Amino-1-(5-tert-butyl-1H-benzimidazol-2-yl)propan-2-ol], the IC50 under setting [1] was 176 nM.

As for `CC(C)(C)c1ccc2[nH]c([C@@H](N)CO)nc2c1` [Example 20, (2R)-2-Amino-2-(5-tert-butyl-1H-benzimidazol-2-yl)ethanol], the IC50 under setting [1] is 106 nM.

In the case of `CO[C@H](C)[C@H](N)c1nc2cc(C(C)(C)C)ccc2[nH]1` [Example 21, (1R,2R)-1-(5-tert-Butyl-1H-benzimidazol-2-yl)-2-methoxypropan-1-amine], the IC50 under setting [1] is 32.6 nM.

In the case of `CC(C)(C)c1ccc2[nH]c([C@@H]3C[C@H](O)CN3)nc2c1` [Example 22, (3S,5S)-5-(5-tert-Butyl-1H-benzimidazol-2-yl)pyrrolidin-3-ol], the IC50 under setting [1] was 108 nM.

Take `CC[C@@H](C)[C@@H](N)c1nc2cc(C(C)(C)C)ccc2[nH]1` [Example 23, (1R,2R)-1-(5-tert-Butyl-1H-benzimidazol-2-yl)-2-methylbutan-1-amine]: the IC50 under setting [1] is 44.6 nM.

With `CC(C)(C)c1ccc2[nH]c([C@H]3C[C@@H](O)CN3)nc2c1` [Example 24, (3R,5R)-5-(5-tert-Butyl-1H-benzimidazol-2-yl)pyrrolidin-3-ol], the IC50 under setting [1] is 58 nM.

Take `CC(C)(C)c1ccc2[nH]c([C@H]3CCCN3)nc2c1` [Example 25, 5-tert-Butyl-2-[(2R)-pyrrolidin-2-yl]-1H-benzimidazole]: under setting [1], the IC50 was 74.2 nM.

Consider `CC(C)(C)c1ccc2[nH]c([C@@H]3C[C@@H](O)CN3)nc2c1` [Example 26, (3R,5S)-5-(5-tert-Butyl-1H-benzimidazol-2-yl)pyrrolidin-3-ol], for which the IC50 under setting [1] is 31.5 nM.

As for `COC(C)(C)C(N)c1nc2cc(C(C)(C)C)ccc2[nH]1` (stereo not shown) [Example 27, 1-(5-tert-Butyl-1H-benzimidazol-2-yl)-2-methoxy-2-methylpropan-1-amine], under setting [1], the IC50 is 153 nM.

As to `CC(C)(C)c1ccc2[nH]c([C@H](N)CC(N)=O)nc2c1` [Example 28, (3R)-3-Amino-3-(5-tert-butyl-1H-benzimidazol-2-yl)propanamide], the IC50 under setting [1] was 130 nM.

For `CCC(C)(C)c1ccc2[nH]c([C@@H]3C[C@H](O)CN3)nc2c1` [Example 29, (3S,5S)-5-[5-(2-Methylbutan-2-yl)-1H-benzimidazol-2-yl]pyrrolidin-3-ol], the IC50 under setting [1] is 390 nM.

For `CCC(C)(C)c1ccc2[nH]c([C@@H](N)CC(N)=O)nc2c1` [Example 30, (3S)-3-Amino-3-[5-(2-methylbutan-2-yl)-1H-benzimidazol-2-yl]propanamide], the IC50 under setting [1] was 148 nM.

As to `CCC(C)(C)c1ccc2[nH]c([C@@H](N)COC)nc2c1` [Example 31, (1R)-2-Methoxy-1-[5-(2-methylbutan-2-yl)-1H-benzimidazol-2-yl]ethanamine], the IC50 under setting [1] was 125 nM.
